The text below walks through data of ChEMBL document CHEMBL1201862, “PubChem BioAssay data set” (2004).

What all share (assay): NCI tumour cell line growth inhibition, 48 h
In test [1] the test system is TK-10.
Test [2] deals with A549.
The test system of test [3] is DU-145.
Test [4] deals with NCI-H23.
In test [5] the test system is NCI-H460.
For test [6], the system named is MOLT-4.
Test [7] has as its system SK-OV-3.
Test [8] concerns NCI-H522.
Test [9] deals with OVCAR-8.
Test [10] deals with IGROV-1.
In test [11] the test system is U-251.
The subject of test [12] is BT-549.
For test [13], the system named is MDA-MB-435.
The subject of test [14] is OVCAR-5.
Test [15] concerns HCC 2998.
The subject of test [16] is MCF7.
For test [17], the system named is RPMI-8226.
Test [18] relates to HCT-15.
The subject of test [19] is HOP-92.
The subject of test [20] is MDA-N.

The structures appear in SMILES notation.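 How tested: cells in 96-well plates exposed to compound for 48 hours at five concentrations. At the GI50, growth is halved.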 Activity calls are given as the source filed them. Cut-off read from the data, not from the text of the source: active = GI50 up to about 1.1 µM and inactive = higher.

For `N#CI1OC(=O)c2ccccc21`, the GI50 is > 100 µM (inactive) in [1]; > 100 µM (inactive) in test [2]; > 100 µM (inactive) in test [3]; > 100 µM (inactive) in test [4]; > 100 µM (inactive) in test [5]; 92.9 µM (inactive) in test [6]. The GI50 was > 100 µM (inactive) in test [7]; 18.2 µM (inactive) in test [8]; > 100 µM (inactive) in test [9]; > 100 µM (inactive) in [10]; > 100 µM (inactive) in test [11]; 91.2 µM (inactive) in [12]. Besides, the GI50 in test [13] was > 100 µM (inactive); in test [14], > 100 µM (inactive); in test [15] it was > 100 µM (inactive); in test [16], 60.7 µM (inactive); in test [17], 38.5 µM (inactive); in test [18], 37.2 µM.

As for `COC(=O)CN1CCN(c2cccc3c2CCCC3)CC1`, the GI50 in [19] is 0.0248 µM (active); in [1] it was 93.8 µM (inactive); in [2] it was 69.5 µM (inactive); in [4] it was 13.9 µM (inactive); in [5] it was 46.8 µM (inactive); in [6], 44.5 µM (inactive). The GI50 in test [20] is > 100 µM (inactive); in test [8], 67.6 µM (inactive); in test [9] it was > 100 µM (inactive); in test [10], > 100 µM (inactive); in test [11], > 100 µM (inactive); in [13] it was 40.5 µM (inactive). The GI50 in [14] was 48.9 µM (inactive); in [15], 29.6 µM (inactive); in test [16], 37 µM (inactive); in test [17], 25.1 µM (inactive); in test [18], over 100 µM.

For the molecule `CCOc1ccccc1NC(=O)CCC(=O)OC`, the GI50 in test [19], in test [1], in [2], in test [4], in test [5] and in test [6] was > 100 µM (inactive) each time. For the same molecule, the GI50 in [7] was > 100 µM (inactive); in test [8], > 100 µM (inactive); in test [9], > 100 µM (inactive); in test [10], > 100 µM (inactive); in test [11], > 49.9 µM (inactive); in test [14], > 100 µM (inactive). In addition, the results for the GI50 in test [15], in test [17] and in test [18] were > 100 µM (inactive), > 48.3 µM (inactive) and over 74.5 µM, respectively.

Take `COc1ccc(NC(=S)Nc2cc(C)ccn2)cc1`: the GI50 in test [19], in [1], in [3], in test [4], in test [5] and in test [6] was > 100 µM (inactive) in each case. The GI50 in test [9], in test [10], in test [11], in test [12], in test [13] and in [15] was > 100 µM (inactive) in each case. Moreover, the GI50 is > 100 µM (inactive) in [16], > 100 µM (inactive) in test [17] and over 100 µM in test [18].

Turning to `Nc1nc(Cl)cc(NCCCCCCNc2cc(Cl)nc(N)n2)n1`, the GI50 in [19] was 25.4 µM (inactive); in test [1], > 100 µM (inactive); in test [2], 60.7 µM (inactive); in [4] it was 54.5 µM (inactive); in test [5], > 100 µM (inactive); in [6], 48.2 µM (inactive). Moreover, the GI50 in test [7] is > 100 µM (inactive); in test [8], 27.7 µM (inactive); in test [9], > 100 µM (inactive); in [10], > 100 µM (inactive); in [11], > 100 µM (inactive); in test [14] it was 16 µM (inactive). The GI50 in [15] was > 100 µM (inactive); in test [17], 45.3 µM (inactive); in [18], 78.9 µM.

Consider `CCCNCCCC(NC(C)=O)C(=O)NCc1ccccc1` (stereo unspecified), for which the GI50 in [19], in test [1], in [2], in test [4], in test [5] and in test [6] was > 100 µM (inactive) each time. Besides, the GI50 in test [7], in [8], in [9], in [10], in test [11] and in test [14] was > 100 µM (inactive) in each case. For the same molecule, the GI50 was > 100 µM (inactive) in test [15], > 100 µM (inactive) in test [17] and over 100 µM in test [18].

For `NC(=O)N/N=C1/CCCC/C1=C\c1ccccc1`, the GI50 is > 100 µM (inactive) in test [19]; > 100 µM (inactive) in [1]; > 100 µM (inactive) in [2]; > 100 µM (inactive) in test [4]; > 100 µM (inactive) in test [5]; 36.6 µM (inactive) in test [6]. The GI50 in [7], in [8], in test [9], in test [10], in test [11] and in test [14] was > 100 µM (inactive) throughout. Moreover, the results for the GI50 in test [15], in test [17] and in test [18] were > 100 µM (inactive), > 100 µM (inactive) and over 100 µM, respectively.

Take `NC1=C(N2CCOCC2)C(=O)NC2=N/C(=C\c3ccccc3O)C(=O)N21`: the GI50 was 51.8 µM (inactive) in test [19]; > 100 µM (inactive) in [1]; > 100 µM (inactive) in test [2]; > 100 µM (inactive) in test [3]; > 100 µM (inactive) in test [4]; 89.3 µM (inactive) in [5]. The GI50 is 31.6 µM (inactive) in [6]; > 100 µM (inactive) in [7]; > 100 µM (inactive) in test [20]; 76.2 µM (inactive) in test [8]; > 100 µM (inactive) in [9]; > 100 µM (inactive) in test [10]. For the same molecule, the GI50 in [11] is > 100 µM (inactive); in [13], > 100 µM (inactive); in [14], > 100 µM (inactive); in test [15], 95.7 µM (inactive); in [16], > 100 µM (inactive); in test [17] it was 20.5 µM (inactive). This molecule also gave a GI50 in test [18] of 51.1 µM.

For the molecule `O=c1[nH]c(=O)n(C2OC(CO)C(O)C2O)cc1Oc1ccccc1` (stereo unspecified), the GI50 in [19], in [1], in test [2], in [3], in test [4] and in test [5] was > 100 µM (inactive) in each case. For the same molecule, the GI50 in test [6], in [7], in [20], in [8], in test [9] and in test [10] was > 100 µM (inactive) each time. Moreover, the GI50 in test [11] is > 100 µM (inactive); in test [13] it was > 100 µM (inactive); in test [14], > 100 µM (inactive); in [15] it was > 100 µM (inactive); in test [16], > 100 µM (inactive); in test [18], over 100 µM.

Regarding `COc1ccc(OC)c2c1C1CCC(=O)N1CN2C(C)=O` (stereo unspecified), the GI50 in test [19], in test [1], in test [2], in test [3], in [4] and in test [5] was > 100 µM (inactive) each time. Also, the GI50 in test [6], in [7], in test [20], in test [8], in [9] and in test [10] was > 100 µM (inactive) in each case. Also, the GI50 in test [11], in test [13], in test [14], in [15], in test [16] and in test [17] was > 100 µM (inactive) throughout. Moreover, in [18], the GI50 was over 100 µM.

Take `[O-][S+](Nc1ccccc1)c1ccccc1Oc1ccccc1` (stereo unspecified): the GI50 in test [1] was > 100 µM (inactive); in [2], 27 µM (inactive); in test [3], > 100 µM (inactive); in test [4], 29.8 µM (inactive); in test [5], 35.3 µM (inactive); in [6] it was 19.1 µM (inactive). Moreover, the GI50 in [20] is 57.1 µM (inactive); in test [8], 25 µM (inactive); in test [9] it was 26.9 µM (inactive); in test [10], 2.62 µM (inactive); in [11], 22 µM (inactive); in test [13], 40.8 µM (inactive). In addition, the GI50 is > 100 µM (inactive) in test [14]; 24.3 µM (inactive) in test [15]; 60 µM (inactive) in test [16]; 43.3 µM (inactive) in [17]; 27.7 µM in test [18].

For the molecule `CN(C)c1ccc(/C=N/NC(=S)Nc2ccccc2)cc1`, the GI50 in [19], in test [1], in [2], in test [3], in test [4] and in test [5] was > 100 µM (inactive) each time. The GI50 in test [6], in [7], in [8], in [9], in test [10] and in test [11] was > 100 µM (inactive) each time. Also, the GI50 in [12] is > 100 µM (inactive); in [13] it was > 100 µM (inactive); in test [14] it was > 100 µM (inactive); in test [16], > 100 µM (inactive); in test [17], > 100 µM (inactive); in [18], over 100 µM.
